A short description of this series: Solubility of DHEA in various conventional solubilizing agents. It is filed as physicochemical. Conditions: for Solubility after one month (AT): ambient temperature. On the procedure:
The solubility of DHEA in various conventional solubilizing agents is mentioned in Table 2 below by way of comparison (the percentage of DHEA is calculated with respect to the total weight of DHEA and of solvent; AT refers to ambient temperature): […]

Setting [1] is: solvent Benzoate of C12-15 alcohols, 3% DHEA.
[2] abbreviates: solvent Propylene glycol, 5-10% DHEA.
Setting [3] is: solvent Propylene glycol, 15-20% DHEA.

As to `C[C@]12CC[C@H](O)CC1=CC[C@@H]1[C@@H]2CC[C@]2(C)C(=O)CC[C@@H]12` [DHEA, dehydroepiandrosterone], the Solubility result is “Soluble at 50 °C” under setting [1]; “Insoluble even at” (solvent Dodecanol, 10% DHEA); “Soluble at AT” (solvent Phenoxyethanol, 20% DHEA (of total weight of DHEA and solvent)); “Soluble at 50 °C” under setting [2]; “Insoluble at AT” under setting [3]. Besides, the “Solubility after one month (AT)” value is “Crystals” under setting [1]; “Crystals” (solvent Dodecanol, 10% DHEA); “Crystals” (solvent Phenoxyethanol, 20% DHEA); “Crystals” under setting [2]; “Crystals” under setting [3].

Source of the values: US6486147B2, “Cosmetic composition containing a steroid and a 2-alkylalkanol or an ester thereof” (L'Oreal, priority 2000, dated 2002).
